# Source: PubChem BioAssay (NCI)
#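 All cell lines were grown in 96-well plates and treated with compound for 48 hours. TGI denotes the concentration required for complete inhibition of growth.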
# Key:
# Assay in all cases: NCI-60 cell line screen, 48 h
# 786-0 renal = test system: 786-0 renal
# A498 renal = test system: A498 renal
# A549 NSCLC = test system: A549 NSCLC
# ACHN renal = test system: ACHN renal
# BT-549 breast = test system: BT-549 breast
# CAKI-1 renal = test system: CAKI-1 renal
# CCRF-CEM leukemia = test system: CCRF-CEM leukemia
# COLO 205 colon = test system: COLO 205 colon
# DU-145 prostate = test system: DU-145 prostate
# EKVX NSCLC = test system: EKVX NSCLC
# HCC-2998 colon = test system: HCC-2998 colon
# HCT-116 colon = test system: HCT-116 colon
# HCT-15 colon = test system: HCT-15 colon
# HL-60(TB) leukemia = test system: HL-60(TB) leukemia
# HOP-62 NSCLC = test system: HOP-62 NSCLC
# HOP-92 NSCLC = test system: HOP-92 NSCLC
# HS 578T breast = test system: HS 578T breast
# HT29 colon = test system: HT29 colon
# IGROV1 ovarian = test system: IGROV1 ovarian
# K-562 leukemia = test system: K-562 leukemia
# KM12 colon = test system: KM12 colon
# LOX IMVI melanoma = test system: LOX IMVI melanoma
# M14 melanoma = test system: M14 melanoma
# MALME-3M melanoma = test system: MALME-3M melanoma
# MCF7 breast = test system: MCF7 breast
# MDA-MB-231 breast = test system: MDA-MB-231 breast
# MDA-MB-435 = test system: MDA-MB-435
# MDA-N = test system: MDA-N
# MOLT-4 leukemia = test system: MOLT-4 leukemia
# NCI-H226 lung = test system: NCI-H226 lung
# NCI-H23 lung = test system: NCI-H23 lung
# NCI-H460 lung = test system: NCI-H460 lung
# NCI-H522 lung = test system: NCI-H522 lung
# NCI/ADR-RES ovarian = test system: NCI/ADR-RES ovarian
# OVCAR-3 ovarian = test system: OVCAR-3 ovarian
# OVCAR-4 ovarian = test system: OVCAR-4 ovarian
# OVCAR-5 ovarian = test system: OVCAR-5 ovarian
# OVCAR-8 ovarian = test system: OVCAR-8 ovarian
# PC-3 prostate = test system: PC-3 prostate
# RPMI-8226 leukemia = test system: RPMI-8226 leukemia
# RXF 393 renal = test system: RXF 393 renal
# SF-268 CNS = test system: SF-268 CNS
# SF-295 CNS = test system: SF-295 CNS
# SF-539 CNS = test system: SF-539 CNS
# SK-MEL-2 melanoma = test system: SK-MEL-2 melanoma
# SK-MEL-28 melanoma = test system: SK-MEL-28 melanoma
# SK-MEL-5 melanoma = test system: SK-MEL-5 melanoma
# SK-OV-3 ovarian = test system: SK-OV-3 ovarian
# SN12C renal = test system: SN12C renal
# SNB-19 CNS = test system: SNB-19 CNS
# SNB-75 CNS = test system: SNB-75 CNS
# SR leukemia = test system: SR leukemia
# SW-620 colon = test system: SW-620 colon
# T-47D breast = test system: T-47D breast
# TK-10 renal = test system: TK-10 renal
# U251 CNS = test system: U251 CNS
# UACC-257 melanoma = test system: UACC-257 melanoma
# UACC-62 melanoma = test system: UACC-62 melanoma
# UO-31 renal = test system: UO-31 renal
compound,measurement,setting,value
CC(C)(C)[Si](C)(C)OCC1C=CC(n2cnc3c(N)ncnc32)O1 (configuration not stated),TGI,786-0 renal,> 100 µM
same,TGI,A498 renal,> 100 µM
same,TGI,A549 NSCLC,> 100 µM
same,TGI,ACHN renal,> 100 µM
same,TGI,BT-549 breast,> 54.7 µM
same,TGI,CAKI-1 renal,> 100 µM
same,TGI,CCRF-CEM leukemia,39.8 µM
same,TGI,COLO 205 colon,> 100 µM
same,TGI,DU-145 prostate,> 100 µM
same,TGI,EKVX NSCLC,> 100 µM
same,TGI,HCC-2998 colon,> 100 µM
same,TGI,HCT-116 colon,50.6 µM
same,TGI,HCT-15 colon,> 100 µM
same,TGI,HL-60(TB) leukemia,40.3 µM
same,TGI,HOP-62 NSCLC,> 100 µM
same,TGI,HOP-92 NSCLC,38.1 µM
same,TGI,HS 578T breast,> 100 µM
same,TGI,HT29 colon,> 100 µM
same,TGI,IGROV1 ovarian,> 100 µM
same,TGI,K-562 leukemia,54 µM
same,TGI,KM12 colon,> 100 µM
same,TGI,LOX IMVI melanoma,> 64 µM
same,TGI,M14 melanoma,66.9 µM
same,TGI,MALME-3M melanoma,> 100 µM
same,TGI,MCF7 breast,> 75.4 µM
same,TGI,MDA-MB-231 breast,> 73.6 µM
same,TGI,MDA-MB-435,57.1 µM
same,TGI,MDA-N,85.9 µM
same,TGI,MOLT-4 leukemia,44.4 µM
same,TGI,NCI-H226 lung,> 69.6 µM
same,TGI,NCI-H23 lung,> 100 µM
same,TGI,NCI-H460 lung,> 100 µM
same,TGI,NCI-H522 lung,> 100 µM
same,TGI,NCI/ADR-RES ovarian,> 100 µM
same,TGI,OVCAR-3 ovarian,> 67.9 µM
same,TGI,OVCAR-4 ovarian,> 100 µM
same,TGI,OVCAR-5 ovarian,> 100 µM
same,TGI,OVCAR-8 ovarian,> 100 µM
same,TGI,PC-3 prostate,> 100 µM
same,TGI,RPMI-8226 leukemia,58.3 µM
same,TGI,RXF 393 renal,73 µM
same,TGI,SF-268 CNS,> 100 µM
same,TGI,SF-295 CNS,> 100 µM
same,TGI,SF-539 CNS,> 81.5 µM
same,TGI,SK-MEL-2 melanoma,> 100 µM
same,TGI,SK-MEL-28 melanoma,> 100 µM
same,TGI,SK-MEL-5 melanoma,34.1 µM
same,TGI,SK-OV-3 ovarian,> 100 µM
same,TGI,SN12C renal,> 100 µM
same,TGI,SNB-19 CNS,> 100 µM
same,TGI,SNB-75 CNS,> 81 µM
same,TGI,SR leukemia,60.8 µM
same,TGI,SW-620 colon,> 95.8 µM
same,TGI,T-47D breast,> 100 µM
same,TGI,TK-10 renal,> 100 µM
same,TGI,U251 CNS,72.3 µM
same,TGI,UACC-257 melanoma,98.4 µM
same,TGI,UACC-62 melanoma,> 69.5 µM
same,TGI,UO-31 renal,> 100 µM
CCCCCOC(=O)c1cc2cc(CCl)ccc2oc1=O,TGI,786-0 renal,18.2 µM
same,TGI,A498 renal,5.39 µM
same,TGI,A549 NSCLC,41 µM
same,TGI,ACHN renal,8.42 µM
same,TGI,BT-549 breast,40.6 µM
same,TGI,CAKI-1 renal,6.3 µM
same,TGI,CCRF-CEM leukemia,> 81.1 µM
same,TGI,COLO 205 colon,16.3 µM
same,TGI,DU-145 prostate,17.1 µM
same,TGI,EKVX NSCLC,18.4 µM
same,TGI,HCC-2998 colon,28.1 µM
same,TGI,HCT-116 colon,27.4 µM
same,TGI,HCT-15 colon,35.4 µM
same,TGI,HL-60(TB) leukemia,7.19 µM
same,TGI,HOP-62 NSCLC,32.9 µM
same,TGI,HOP-92 NSCLC,7.35 µM
same,TGI,HS 578T breast,> 42.8 µM
same,TGI,HT29 colon,35.4 µM
same,TGI,IGROV1 ovarian,27.8 µM
same,TGI,K-562 leukemia,> 49.4 µM
same,TGI,KM12 colon,31.2 µM
same,TGI,LOX IMVI melanoma,34.5 µM
same,TGI,M14 melanoma,34.8 µM
same,TGI,MALME-3M melanoma,8.33 µM
same,TGI,MCF7 breast,> 56.9 µM
same,TGI,MDA-MB-231 breast,37.5 µM
same,TGI,MDA-MB-435,14.9 µM
same,TGI,MDA-N,20.9 µM
same,TGI,MOLT-4 leukemia,> 81.7 µM
same,TGI,NCI-H226 lung,38 µM
same,TGI,NCI-H23 lung,17.2 µM
same,TGI,NCI-H460 lung,34.9 µM
same,TGI,NCI-H522 lung,1.3 µM
same,TGI,NCI/ADR-RES ovarian,53.3 µM
same,TGI,OVCAR-3 ovarian,19.5 µM
same,TGI,OVCAR-4 ovarian,18.6 µM
same,TGI,OVCAR-5 ovarian,31.6 µM
same,TGI,OVCAR-8 ovarian,> 63 µM
same,TGI,PC-3 prostate,15.2 µM
same,TGI,RPMI-8226 leukemia,> 80.1 µM
same,TGI,RXF 393 renal,14.6 µM
same,TGI,SF-268 CNS,41.9 µM
same,TGI,SF-295 CNS,60.4 µM
same,TGI,SF-539 CNS,> 93.3 µM
same,TGI,SK-MEL-2 melanoma,2.08 µM
same,TGI,SK-MEL-28 melanoma,60.2 µM
same,TGI,SK-MEL-5 melanoma,13.4 µM
same,TGI,SK-OV-3 ovarian,45 µM
same,TGI,SN12C renal,28.1 µM
same,TGI,SNB-19 CNS,> 76.8 µM
same,TGI,SNB-75 CNS,31.2 µM
same,TGI,SR leukemia,67.5 µM
same,TGI,SW-620 colon,56.6 µM
same,TGI,T-47D breast,13.6 µM
same,TGI,TK-10 renal,5.3 µM
same,TGI,U251 CNS,34.9 µM
same,TGI,UACC-257 melanoma,5.96 µM
same,TGI,UACC-62 melanoma,5.91 µM
same,TGI,UO-31 renal,11.1 µM
C#C[C@]1(O)CC[C@H]2[C@@H]3CCC4=C/C(=N\OCCN(CC)CC)CC[C@]4(C)[C@H]3CC[C@@]21C,TGI,786-0 renal,9.42 µM
same,TGI,A498 renal,28.9 µM
same,TGI,A549 NSCLC,> 41.4 µM
same,TGI,ACHN renal,28.1 µM
same,TGI,BT-549 breast,31.5 µM
same,TGI,CAKI-1 renal,39.7 µM
same,TGI,CCRF-CEM leukemia,44.9 µM
same,TGI,COLO 205 colon,11.5 µM
same,TGI,DU-145 prostate,25.8 µM
same,TGI,EKVX NSCLC,26.6 µM
same,TGI,HCC-2998 colon,25.9 µM
same,TGI,HCT-116 colon,17.6 µM
same,TGI,HCT-15 colon,25.3 µM
same,TGI,HL-60(TB) leukemia,3.42 µM
same,TGI,HOP-62 NSCLC,16 µM
same,TGI,HOP-92 NSCLC,52.9 µM
same,TGI,HS 578T breast,7.51 µM
same,TGI,HT29 colon,14.6 µM
same,TGI,IGROV1 ovarian,17.1 µM
same,TGI,K-562 leukemia,11.9 µM
same,TGI,KM12 colon,11.4 µM
same,TGI,LOX IMVI melanoma,13.1 µM
same,TGI,M14 melanoma,10.9 µM
same,TGI,MALME-3M melanoma,10.2 µM
same,TGI,MCF7 breast,21.3 µM
same,TGI,MDA-MB-231 breast,35.2 µM
same,TGI,MDA-MB-435,15.2 µM
same,TGI,MDA-N,6.24 µM
same,TGI,MOLT-4 leukemia,1.04 µM
same,TGI,NCI-H226 lung,29.8 µM
same,TGI,NCI-H23 lung,19.7 µM
same,TGI,NCI-H460 lung,21 µM
same,TGI,NCI-H522 lung,5.76 µM
same,TGI,NCI/ADR-RES ovarian,8.5 µM
same,TGI,OVCAR-3 ovarian,8.91 µM
same,TGI,OVCAR-4 ovarian,50.4 µM
same,TGI,OVCAR-5 ovarian,32.2 µM
same,TGI,OVCAR-8 ovarian,24.6 µM
same,TGI,PC-3 prostate,16.1 µM
same,TGI,RPMI-8226 leukemia,5.83 µM
same,TGI,RXF 393 renal,7.35 µM
same,TGI,SF-268 CNS,10.8 µM
same,TGI,SF-295 CNS,5.21 µM
same,TGI,SF-539 CNS,10.1 µM
same,TGI,SK-MEL-2 melanoma,11.3 µM
same,TGI,SK-MEL-28 melanoma,25.8 µM
same,TGI,SK-MEL-5 melanoma,7.37 µM
same,TGI,SK-OV-3 ovarian,34.4 µM
same,TGI,SN12C renal,46.8 µM
same,TGI,SNB-19 CNS,18.5 µM
same,TGI,SNB-75 CNS,10.9 µM
same,TGI,SR leukemia,> 31.3 µM
same,TGI,SW-620 colon,> 29.1 µM
same,TGI,T-47D breast,40.9 µM
same,TGI,TK-10 renal,23.5 µM
same,TGI,U251 CNS,> 38.3 µM
same,TGI,UACC-257 melanoma,16.9 µM
same,TGI,UACC-62 melanoma,11.3 µM
same,TGI,UO-31 renal,15.8 µM
